Test results taken from patent US7108996B2, “Method for increasing luminescence assay sensitivity” (Promega Corporation, priority 2000, dated 2006).
Where two headings read alike, the source gives them in different places.

Key:
[1] = test system: coelenterazine autoluminescence in Human embryonic kidney cells (293); assay: Whole cell assay: reduction of coelenterazine autoluminescence in the presence of living cells; format: cell-based
Procedure: (§1) To determine the effect of organic compounds on cell viability and to determine the ability of such compounds to reduce autoluminescence in the presence of living cells, the following experiment was performed. Human embryonic kidney cells (293, ATCC, Rockville, Md.) were used to generate a cell line that stably expresses the firefly luciferase (Luc+) gene. This stable cell line was made using the pCl-neo vector (Promega Corporation, Madison Wis., USA) and inserting the Luc+ gene between the Xba I and Sal I sites. The stable cell line was prepared using standard methods and the transformed cells were grown in wells of a microtiter plate in the presence of DMEM medium containing 10% FBS and 0.15 mg/ml G418. For experimental purposes, duplicate plates of cells were prepared using 96 well microtiter plates. One plate was used to examine viability, and the other plate was used to examine the effect on autoluminescence.
To determine the ability of the organic compounds to reduce autoluminescence, the media was removed from the cells and replaced with media containing the compounds at various concentrations and coelenterazine. Since there is no Renilla luciferase enzyme being expressed in these cells, the only luminescence observed is autoluminescence. The level of autoluminescence was compared to controls containing only coelenterazine to identify the effect of the compounds on reducing autoluminescence.
(§2) Half of the microtiter plate contained no cells. To these wells, the same reagents were added as to the cell counterpart to measure cell-independent luminescence (i.e. background luminescence). The reagents (media with luciferin or coelenterazine, with or without compounds at various concentrations) were prepared as follows:
b) Reagent to Examine Reduction in Autoluminescence
Coelenterazine substrate was initially dissolved in Stop & Glob Reagent Solvent (both available from Promega Corporation, Madison Wis., USA) as a 30 mM stock. This coelenterazine stock was used to make DMEM media containing 0.6 mM coelenterazine as the final concentration. DMEM/coelenterazine reagents were made in a similar fashion as the DMEM/luciferin reagents described in a).
(§3) The cell culture medium was removed from the cells and replaced with medium containing substrate (+/−compound) and luminescence was measured immediately. […] Fold reduction in autoluminescence was calculated by dividing the background-subtracted autoluminescence in minus compound controls by the background-subtracted autoluminescence containing the compounds.

[2] = test system: Human embryonic kidney cells (293) stably expressing firefly luciferase (Luc+); assay: Whole cell assay: firefly luminescence as indicator of cell viability; format: cell-based
Procedure: as §1
To examine the effect of the organic compounds in cell viability, the media was removed from the cells and replaced with media containing the substrate for firefly luciferase, beetle luciferin, and the organic compounds at various concentrations. Passive diffusion of luciferin across the cell membrane together with the ATP oxygen and luciferase enzyme already contained within the cell, results in light production. Whereas, in compromised or damaged cells, intracellular ATP concentration is rapidly depleted, decreasing the firefly luminescence. The level of luminescence was compared to controls containing only luciferin to identify the effect of the compounds, if any, on light output as an indicator of cell viability.
as §2
a) Reagent to Examine Firefly Luminescence (Cell Viability)
Luciferin substrate available from Promega Corporation, Madison Wis., USA was initially prepared in 10 mM sodium phosphate buffer, pH 7.4 as a 100 mM stock. This luciferin stock was used to make DMEM solution containing a final concentration of 2 mM luciferin.
Thiourea and 1-allyl-3-(2-hydroxyethyl)-2-thiourea were dissolved directly in this solution (DMEM/luciferin) to a final concentration of 30 mM. These were subsequently diluted to contain final compound concentrations of 10 mM and 1 mM.
Another compound 6-aza-thio-thymidine was dissolved in DMSO as a 750 mM stock. The 6-aza-thio-thymidine was subsequently added to the DMEM/luciferin reagent at a final concentration of 30 mM, 10 mM, and 1 mM, while maintaining a final DMSO concentration of 4%. A DMEM/luciferin reagent was used as the control with which to compare the effect of the compound and was also made to contain a final DMSO concentration of 4%.
Since it is believed that DMSO may help organic molecules permeat cell membranes, an additional control was included that consisted of thiourea (10 mM) reconstituted in DMSO (4%).
as §3

Renilla luciferase [3] = biological target: T1, Renilla luciferase (Renilla reniformis, UniProt P27652); details: Format A
Procedure: (§4) The enzymatic luminescence measurement may have an autoluminescence component.
(§5) Format A Assays were performed in the presence of Steady Glo® reagent (SG) and Stop & Glo® reagent (S+G), (Promega Corporation, Madison Wis.). A total reaction volume of 150 μl consisted of:
(§6) 50 μl F-12 (Ham) media+1 mg/ml gelatin (with or without enzyme^1)
(§7) 50 μl S+G (containing substrate^2)
(§8) 50 μl SG ^1 Renilla luciferase enzyme was added to F-12 cell culture media containing 1% gelatin, to a concentration of approximately 2.5 ng/50 μl media. Reactions in the absence of Renilla luciferase reveal the effect of the compound on autoluminescence while reactions in the presence of enzyme reveal the effect of the compound on Renilla luciferase-catalyzed luminescence.^2 The S+G reagent was prepared as per manufacturer's instructions, with the exception that for these experiments a S+G solvent three times more concentrated than normal was used to resuspend the S+G substrate.
(§9) The compound to be tested was re-suspended in either SG or S+G reagent to a final concentration of SG or S+G of (1×). The compound was added so the final concentration in the 150 μl total volume would be that listed in Table 1 and the reagent was diluted to the a final of 50 μl with water. For controls, the SG or S+G reagent was brought up to 50 μl with water or with the solvent used to dissolve the compound of interest. For example, if a compound needed to be dissolved in DMSO (dimethyl sulphoxide), an equal volume of DMSO was added to the control reaction. Unless otherwise indicated, the compounds were first dissolved in water.
(§10) For each concentration of a particular compound, a mixture containing all of the components in sufficient amounts for four reactions (i.e. 200 μl media, 200 μl SG, 200 μl S+G) was assembled. From this mixture, 150 μl was dispensed into triplicate wells on a 96-well plate. Alternatively, reactions were sometimes assembled in each well of the plate by adding each of the 50 μl portions and mixing. The plate was incubated at 22° C. and after 5 minutes the luminescence was measured using a Dynex plate luminometer (1 second measurement per well).
(§11) b) effect of the compound on enzymatic luminescence measurement in the presence of the compound when compared to control samples lacking only the compound.

[4] = Procedure: as §4, §5, §6, §7, §8, §9, §10
(§12) a) fold-decrease in non-enzymatic autoluminescence measurement in the presence of the compound when compared to the absence of the compound and, […]

[5] = remark: listed apart in the source
Procedure: as §4
(§13) Format B Experiments were performed in a reaction volume of 150 μl Matthew's Buffer (referred to herein as MB) as either a standard MB composition or a modified MB composition as described below. As with Format A, reactions with and without Renilla luciferase were carried out to observe the effect of the organic compounds on assay sensitivity.
(§14) 1× Matthew's buffer standard composition consists of:
(§15) In order to observe the autoluminescence enhanced only by the detergent, for the majority of the experiments, BSA was replaced with porcine gelatin as the enzyme stabilizer at a final concentration of 0.15 mg/ml or 0.45 mg/ml. Taking all the variants into account the format can be sub-divided in 4 different versions:
(§16) Reactions were carried out in triplicate by adding each of the 50 μl portions to microtiter plate wells and mixing. The resulting relative light units generated per well was measured immediately using a Dynex MLX Microtiter plate luminometer or a Wallac 1450 MicroBeta Trilux plate luminometer (1 second/well) or alternatively, the plate was incubated at 22° C. and read after 5 minutes in the same fashion.
as §12

Renilla luciferase [6] = biological target: T1, Renilla luciferase
Procedure: as §4, §13, §14, §15, §16, §11

[7] = 1 mM compound, no additives to media
[8] = 10 mM compound, no additives to media
[9] = 30 mM compound, no additives to media
[10] = 1 mM compound, 4% DMSO in media
[11] = 10 mM compound, 4% DMSO in media
[12] = 30 mM compound, 4% DMSO in media
[13] = 3 mM compound, Format B3 (gelatin, detergent)
[14] = 3 mM compound, Format B3 with Tween-20
[15] = 3 mM compound, Format B4 + 10 mM sodium hydrosulfate
[16] = 10 mM compound, Format B4 (gelatin, no detergent)
[17] = 100 mM compound, Format B3 (gelatin, detergent)
[18] = 100 mM compound, Format B4 (gelatin, no detergent)
[19] = 10 mM compound, Format B3 (gelatin, detergent)
[20] = 30 mM compound, Format B3 (gelatin, detergent)
[21] = 30 mM compound, Format B4 (gelatin, no detergent)

T1 sequence (P27652 whole entry): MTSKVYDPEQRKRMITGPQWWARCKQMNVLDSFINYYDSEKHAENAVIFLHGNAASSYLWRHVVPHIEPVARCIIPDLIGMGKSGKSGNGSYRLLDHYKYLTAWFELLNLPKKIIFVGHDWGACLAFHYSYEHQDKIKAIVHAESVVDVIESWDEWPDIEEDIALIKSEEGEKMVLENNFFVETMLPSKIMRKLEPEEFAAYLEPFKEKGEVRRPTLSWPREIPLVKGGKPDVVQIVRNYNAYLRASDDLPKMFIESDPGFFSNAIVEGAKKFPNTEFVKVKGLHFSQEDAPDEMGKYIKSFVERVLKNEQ

SMILES: C=CCNC(=S)NCCO [1-Allyl-3-(2-hydroxyethyl)-2-thiourea, 1-allyl-3-(2-hydroxyethyl)-2-thiourea]
- Fold Decrease in Autoluminescence [1, 7]: 3.5 fold
- Fold Decrease in Autoluminescence [1, 8]: 12 fold
- Fold Decrease in Autoluminescence [1, 9]: 35 fold
- Effects on firefly luminescence [2, 7]: No
- Effects on firefly luminescence [2, 8]: Yes, decreases
- Effects on firefly luminescence [2, 9]: Yes, decreases

SMILES: Cc1nn([C@H]2C[C@H](O)[C@@H](CO)O2)c(=S)[nH]c1=O [6-aza-thio-thymidine]
- Fold Decrease in Autoluminescence [1, 10]: 3 fold
- Fold Decrease in Autoluminescence [1, 11]: 23 fold
- Fold Decrease in Autoluminescence [1, 12]: 525 fold
- Effects on firefly luminescence [2, 10]: No
- Effects on firefly luminescence [2, 11]: No
- Effects on firefly luminescence [2, 12]: Yes, decreases

SMILES: NC(N)=S [Compound 1]
- Effect on luminescence (Renilla luciferase [3]; 33 mM compound): No effect
- Fold decrease autoluminescence ([4]; 33 mM compound, Format A): 15 fold
- Fold decrease autoluminescence [5, 13]: 120 fold
- Fold decrease autoluminescence ([5]; 3 mM compound, Format B3 + 10 mM sodium hydrosulfate): 21.6 fold
- Fold decrease autoluminescence [5, 14]: 100 fold
- Fold decrease autoluminescence ([5]; 3 mM compound, Format B3 with Zwittergent): 6 fold
- Fold decrease autoluminescence [5, 15]: 2.6 fold
- Fold decrease autoluminescence [5, 16]: 2 fold
- Fold decrease autoluminescence ([5]; 50 mM compound, Format B3 + 17% DMSO): 500 fold
- Fold decrease autoluminescence ([5]; 50 mM compound, Format B4 + 17% DMSO): 15 fold
- Fold decrease autoluminescence [5, 17]: 290 fold
- Fold decrease autoluminescence [5, 18]: 8.5 fold
- Fold decrease autoluminescence ([5]; 316 mM compound, Format B2 (BSA, no detergent)): 2 fold
- Effect on luminescence (Renilla luciferase [6]; [13]): No effect
- Effect on luminescence (Renilla luciferase [6]; [14]): No effect
- Effect on luminescence (Renilla luciferase [6]; [15]): No effect
- Effect on luminescence (Renilla luciferase [6]; [17]): No effect

SMILES: NC(N)=[Se] [Compound 2]
- Effect on luminescence (Renilla luciferase [3]; 10 mM compound): No effect
- Fold decrease autoluminescence ([4]; 10 mM compound, Format A): 100 fold
- Fold decrease autoluminescence [5, 19]: 70 fold
- Effect on luminescence (Renilla luciferase [6]; [19]): No effect

SMILES: CC(N)=S [Compound 3]
- Fold decrease autoluminescence ([4]; 33 mM compound, Format A): 100 fold
- Fold decrease autoluminescence ([5]; 33 mM compound, Format B3 (gelatin, detergent)): 545 fold
- Fold decrease autoluminescence ([5]; 33 mM compound, Format B4 (gelatin, no detergent)): 3.4 fold

SMILES: C=CCNC(=S)NCCO [Compound 4]
- Effect on luminescence (Renilla luciferase [3]; 10 mM compound): No effect
- Fold decrease autoluminescence ([4]; 10 mM compound, Format A): 3 fold
- Fold decrease autoluminescence [5, 20]: 500 fold
- Fold decrease autoluminescence [5, 21]: 3.9 fold

SMILES: S=C(Nc1ccccc1)Nc1cscn1 [Compound 5]
- Fold decrease autoluminescence ([4]; 10 mM compound, Format A): 115 fold

SMILES: Cc1c[nH]c(=S)[nH]c1=O [Compound 6]
- Fold decrease autoluminescence ([4]; 32 mM compound, Format A + 17% DMSO): 65 fold
- Fold decrease autoluminescence ([5]; 32 mM compound, Format B3 + 33% DMSO): 660 fold
- Fold decrease autoluminescence ([5]; 32 mM compound, Format B4 + 33% DMSO): 120 fold

SMILES: CON=C(C(=O)O)c1csc(N)n1 [Compound 7]
- Fold decrease autoluminescence [5, 20]: 7 fold
- Fold decrease autoluminescence [5, 21]: 6.2 fold

SMILES: NCCS [Compound 8]
- Effect on luminescence (Renilla luciferase [3]; 100 mM compound): No effect
- Fold decrease autoluminescence ([4]; 100 mM compound, Format A): 6 fold
- Fold decrease autoluminescence [5, 20]: 20 fold
- Fold decrease autoluminescence [5, 21]: 3.5 fold
- Effect on luminescence (Renilla luciferase [6]; [20]): No effect

SMILES: OC(CS)CC(O)CS (stereo not shown) [Compound 9]
- Fold decrease autoluminescence [5, 20]: 13 fold
- Fold decrease autoluminescence [5, 21]: 2.5 fold
- Fold decrease autoluminescence [5, 18]: 3 fold
- Effect on luminescence (Renilla luciferase [6]; [21]): No effect

SMILES: CC(=O)NC(CS)C(=O)O (stereo not shown) [Compound 11]
- Fold decrease autoluminescence [5, 20]: 2 fold
- Fold decrease autoluminescence [5, 21]: 2.3 fold
- Fold decrease autoluminescence [5, 18]: 3.7 fold
- Effect on luminescence (Renilla luciferase [6]; [20]): No effect

SMILES: N#C[S-].[K+] [K SCN]
- Fold decrease autoluminescence [5, 19]: 55 fold
- Fold decrease autoluminescence [5, 16]: 1.7 fold
- Effect on luminescence (Renilla luciferase [6]; [19]): No effect

SMILES: NC(N)=S [thiourea]
- Fold Decrease in Autoluminescence [1, 7]: 3.4 fold
- Fold Decrease in Autoluminescence [1, 11]: 12 fold
- Fold Decrease in Autoluminescence [1, 8]: 16 fold
- Fold Decrease in Autoluminescence [1, 9]: 40 fold
- Effects on firefly luminescence [2, 7]: No
- Effects on firefly luminescence [2, 11]: No
- Effects on firefly luminescence [2, 8]: No
- Effects on firefly luminescence [2, 9]: Yes, decreases
